Values joined by “and” are separate entries in the source; they are usually repeats but may differ in a detail not shown here. Equal entries are not always repeated.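 All cell lines were grown in 96-well plates and treated with compound for 48 hours. The concentration for 50% growth inhibition is given as GI50. At the TGI there is no net growth.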
Columns and labels:
Experiment in all cases: NCI-60 cell line screen, 48 h
T-47D breast = tested on: T-47D breast
SF-295 CNS = tested on: SF-295 CNS
RXF-631 renal = tested on: RXF-631 renal
DMS 273 small cell lung = tested on: DMS 273 small cell lung
PC-3 prostate = tested on: PC-3 prostate
TK-10 renal = tested on: TK-10 renal
DMS 114 small cell lung = tested on: DMS 114 small cell lung
SK-OV-3 ovarian = tested on: SK-OV-3 ovarian
SK-MEL-2 melanoma = tested on: SK-MEL-2 melanoma
SNB-75 CNS = tested on: SNB-75 CNS
XF 498 CNS = tested on: XF 498 CNS
LXFL 529 NSCLC = tested on: LXFL 529 NSCLC
HOP-18 NSCLC = tested on: HOP-18 NSCLC
SN12C renal = tested on: SN12C renal
NCI-H23 lung = tested on: NCI-H23 lung
SF-539 CNS = tested on: SF-539 CNS
HCT-15 colon = tested on: HCT-15 colon
SNB-78 CNS = tested on: SNB-78 CNS

C1CN1c1nc(N2CC2)nc(N2CC2)n1
GI50 (T-47D breast): 8.23 µM and 1.24 µM | TGI (T-47D breast): 76.6 µM and 19.6 µM | GI50 (SF-295 CNS): 1.31 µM | TGI (SF-295 CNS): 19.7 µM and 24.9 µM | TGI (RXF-631 renal): 42.3 µM | TGI (DMS 273 small cell lung): 20.5 µM | GI50 (PC-3 prostate): 20.2 µM | TGI (PC-3 prostate): 69.3 µM and > 71.2 µM | GI50 (TK-10 renal): 4.36 µM | TGI (TK-10 renal): 79.8 µM and 16.7 µM | TGI (DMS 114 small cell lung): 23.2 µM | GI50 (SK-OV-3 ovarian): 13.9 µM | TGI (SK-OV-3 ovarian): 41.1 µM and 36.6 µM | GI50 (SK-MEL-2 melanoma): 19.8 µM | TGI (SK-MEL-2 melanoma): 36.4 µM and 31.3 µM | GI50 (SNB-75 CNS): 8.99 µM | TGI (SNB-75 CNS): 25.7 µM and 31.5 µM | TGI (XF 498 CNS): 17.2 µM | TGI (LXFL 529 NSCLC): 29.7 µM | TGI (HOP-18 NSCLC): 68.9 µM | GI50 (SN12C renal): 4.32 µM | TGI (SN12C renal): 45.3 µM and 41.2 µM | GI50 (NCI-H23 lung): 5.55 µM | TGI (NCI-H23 lung): 20 µM and 15 µM | GI50 (SF-539 CNS): 1.78 µM | TGI (SF-539 CNS): 12.8 µM and 8.65 µM | GI50 (HCT-15 colon): 10.1 µM | TGI (HCT-15 colon): 50.2 µM and 24.6 µM

C[C@@]1(CO)[C@H](O)CC[C@@]2(C)[C@H]1CC[C@H]1C[C@@H]3C[C@@]12CC[C@@]3(O)COC(=O)CN
GI50 (T-47D breast): 41.9 µM | TGI (T-47D breast): > 79.1 µM and 190 µM | GI50 (SF-295 CNS): 770 nM (2×) and 3.44 µM | TGI (SF-295 CNS): 24.4 µM and 142 µM | GI50 (DMS 273 small cell lung): 0.25 µM | TGI (DMS 273 small cell lung): 144 µM | GI50 (PC-3 prostate): 3.29 µM | TGI (PC-3 prostate): 150 µM | GI50 (TK-10 renal): 116 µM | TGI (TK-10 renal): > 81.1 µM and 193 µM | TGI (DMS 114 small cell lung): > 500 µM and 170 µM | TGI (SK-OV-3 ovarian): 99.8 µM and > 500 µM and 186 µM | GI50 (SK-MEL-2 melanoma): > 500 µM | TGI (SK-MEL-2 melanoma): > 89.6 µM and > 500 µM and 177 µM | TGI (SNB-75 CNS): 58.3 µM and > 500 µM and 258 µM | GI50 (XF 498 CNS): > 70.5 µM and 54.2 µM and 16.8 µM | TGI (XF 498 CNS): 347 µM and 176 µM | GI50 (HOP-18 NSCLC): > 500 µM and 87.4 µM | TGI (HOP-18 NSCLC): > 500 µM | TGI (SN12C renal): 65.7 µM and > 500 µM and 183 µM | GI50 (SNB-78 CNS): > 500 µM | TGI (SNB-78 CNS): > 500 µM | TGI (HCT-15 colon): > 500 µM and 231 µM
